Source: patent US10590166B2, “Peptides useable for treating cancer” (Allegro Pharmaceuticals, LLC, priority 2009, dated 2020)
Values joined by “and” are separate entries in the source; they are usually repeats but may differ in a detail not shown here. Equal entries are not always repeated. Where two headings read alike, the source gives them in different places. Square brackets hold non-standard residues; d marks the D form. Peptide text beside a SMILES is read from it. Cya = N[CH](CS(=O)(=O)O)C(=O)O

Columns and labels:
Format in all cases: in vivo
New Zealand Rabbits [1] = test: Ocular toxicity of subconjunctival Compound 1 (Table C); details: single subconjunctival 5.0 mg/100 μL, 48 hour follow up
[2] = system: Pigmented New Zealand Rabbits; test: Ocular toxicity dose escalation, multiple intravitreal injections of Compound 1 (Table E); details: up to 3 intravitreal injections of 2.5, 5.0 or 10.0 mg/100 μL
[3] = system: ischemic retinopathy mouse model; test: ROP / ischemic retinopathy mouse model, pre-retinal neovascularization
Procedure: In this Example, Compound 1 was tested in an ischemic retinopathy mouse model to explore the feasibility of suppressing pre-retinal neovascularization.
Mice that had ischemic retinopathy were injected intravitreously with a single dose of Compound 1 at the concentration of 0.125 μg/1 μL, 12.5 μg/1 μL, 25.0 μg/1 μL and at 50.0 μg/1 μL (Groups B, D, F and H, respectively), as well as a vehicle (BSS) (Controls 1, 2, 3 and 4) on post-natal day 12. On post-natal day 17, 5 days after intravitreal injection, the area of neovascularization was measured by image analysis. FIG. 9 is a bar graph comparing the measured area of neovascularization in mice treated with these varying doces of compound 1 or control (vehicle only).

New Zealand Rabbits [4] = test: Ocular toxicity of intravitreal Compound 1 with and without urea (Table A); details: 24 hour follow up
[5] = system: human subjects with diabetic macular edema; details: for persistence of improvements in BCVA and OCT central macular thickness off treatment: follow up after the last intravitreal treatment
Procedure: Fifteen human patients with late stage DME received three monthly intravitreal injections of Compound 1 as part of a multiple-injection Phase 1 Human Safety Study. […] While this study was firstly a safety study, efficacy was also assessed. Eight of the patients patients improved three or more lines in BCVA (representing 53% of the treated patients) and four of the patients improved from nearly legally blind to functional vision in the 20/40 to 20/60 range. […] These improvements in BCVA and OCT central macular thickness persisted for 90 days of follow up off treatment.
The objective of the Phase 1 study was to evaluate the safety and initial efficacy of the ophthalmic intravitreal injection of COMPOUND 1 in human subjects with end stage diabetic macular edema (DME). The primary endpoint of this study was the observation of dose limiting toxicity. A secondary endpoint of this study was observation of a clinical benefit in reducing the diabetic macular edema in BCVA (ETDRS lines) and OCT central macular thickness.
Fifteen human subjects with chronic end-stage DME completed this open label study. Subjects at enrollment had BCVA of 20/100 or worse primarily due to DME and had not undergone anti-VEGF treatment or focal laser within 90 days prior to enrollment. Many study subjects were refractory to previous Avastin treatments. Study subjects received three monthly intravitreal injections of 2.5 mg COMPOUND 1 and were followed monthly for an additional 3 months. Safety measurements were followed by BCVA, slit lamp evaluation, dilated fundus exam, 10P measurements, OCT, FA, Fundus Photos, B-scan ultrasound, and ERG.

[6] = single intravitreal 2.5 mg/100 μL
[7] = single intravitreal injection, 8 eyes per group
[8] = 15 DME patients, three monthly intravitreal injections of 2.5 mg
[9] = 15 DME patients, three monthly intravitreal injections of 2.5 mg, listed as COMPOUND 1

CC(O)C(NC(=O)C(CS(=O)(=O)O)NC(=O)CNC(=O)C(CCCNC(=N)N)NC(=O)CN)C(=O)N1CCCC1C(=O)O (stereo not shown) [Compound 1, Glycinyl-Arginyl-Glycinyl-Cysteic-Threonyl-Proline-COOH] (H-GRG[Cya]TP-OH; configuration not given here)
Ocular toxicity: RPE toxicity (New Zealand Rabbits [1]): No RPE toxicity | Ocular toxicity: cataract formation (New Zealand Rabbits [1]): No cataract | Ocular toxicity: exudates (New Zealand Rabbits [1]): No exudates | Ocular toxicity: inflammation (New Zealand Rabbits [1]): No inflammation | Ocular toxicity: retinal hemorrhage (New Zealand Rabbits [1]): No retinal | Ocular toxicity: retinal tears, breaks or detachments (New Zealand Rabbits [1]): No retinal tears, | Ocular toxicity: retinal vascular compromise (New Zealand Rabbits [1]): No retinal vascular | Total PVD (New Zealand Rabbits [1]; 3 eyes): 0% Total PVD | Vitreous liquefaction (New Zealand Rabbits [1]; 3 eyes): No liquefaction | Tonometry, average for treated eyes [2]: 12.7 mmHg average | Ocular toxicity: RPE toxicity ([2]; sacrifice Day 7, 37 or 90): No RPE toxicity | Ocular toxicity: cataract formation ([2]; sacrifice Day 7, 37 or 90): No cataract | Ocular toxicity: exudates ([2]; sacrifice Day 7, 37 or 90): No exudates | Ocular toxicity: inflammation ([2]; sacrifice Day 7, 37 or 90): No inflammation | Ocular toxicity: retinal hemorrhage ([2]; sacrifice Day 7, 37 or 90): No retinal | Ocular toxicity: retinal tears, breaks or detachments ([2]; sacrifice Day 7, 37 or 90): No retinal tears, | Ocular toxicity: retinal vascular compromise ([2]; sacrifice Day 7, 37 or 90): No retinal vascular | size of neovascularization lesions ([3]; Group B, single intravitreal 0.125 μg/1 μL on post-natal day 12, measured day 17): somewhat smaller | size of neovascularization lesions ([3]; Group D, single intravitreal 12.5 μg/1 μL on post-natal day 12, measured day 17, statistically significant vs control): greatly decreased | size of neovascularization lesions ([3]; Group F, single intravitreal 25.0 μg/1 μL on post-natal day 12, measured day 17, statistically significant vs control): greatly decreased | size of neovascularization lesions ([3]; Group H, single intravitreal 50.0 μg/1 μL on post-natal day 12, measured day 17, statistically significant vs control): greatly decreased | Ocular toxicity: RPE toxicity (New Zealand Rabbits [4]; [6]): No RPE toxicity | Ocular toxicity: cataract formation (New Zealand Rabbits [4]; [6]): No cataract | Ocular toxicity: exudates (New Zealand Rabbits [4]; [6]): No exudates | Ocular toxicity: inflammation (New Zealand Rabbits [4]; [6]): No inflammation | Ocular toxicity: retinal hemorrhage (New Zealand Rabbits [4]; [6]): No retinal | Ocular toxicity: retinal tears, breaks or detachments (New Zealand Rabbits [4]; [6]): No retinal tears, | Ocular toxicity: retinal vascular compromise (New Zealand Rabbits [4]; [6]): No retinal | Total PVD (New Zealand Rabbits [4]; [7]): 75% Total PVD | Vitreous liquefaction (New Zealand Rabbits [4]; [7]): Complete | number of patients with no material increase in CMT ([5]; 15 DME patients): 7 out of 15 patients | number of subjects with no material change in BCVA ([5]; 15 DME patients): 7 out of 15 subjects | share of treated patients improved three or more lines in BCVA ([5]; 15 DME patients, by study day 90 after 3 intravitreal injections of 2.5 mg): 53% | number of patients improved from nearly legally blind to functional vision in the 20/40 to 20/60 range ([5]; 15 DME patients, three monthly intravitreal injections): four | number of patients with reduction in CMT by 30% to 80% [5, 8]: eight | number of subjects improved BCVA by three or more (three to five) lines [5, 8]: Eight | share of subjects with reduction in OCT central macular thickness of at least 30% [5, 8]: 53% | number of patients with reduction in CMT by 30% to 80% [5, 9]: 8 out of 15 and 8 of 15 patients | number of subjects improved BCVA by three or more (three to five) lines [5, 9]: 8 out of 15 and 8 of 15 subjects | maximum reduction in macular edema (OCT) ([5]; 608 to 103): 505 microns | maximum reduction in macular edema (OCT), relative ([5]; 608 to 103 microns): ~80% | persistence of improvements in BCVA and OCT central macular thickness off treatment [5]: 90 days | persistence of improvements in BCVA and OCT central macular thickness off treatment ([5]; listed as COMPOUND 1): at least 90 days | ERG changes ([5]; in vivo): No ERG changes | corneal decompensation or cataract progression ([5]; in vivo): No corneal decompensation or cataract progression | elevations in IOP ([5]; in vivo): No sustained elevations in IOP | inflammatory reactions in the anterior chamber or vitreous cavity ([5]; in vivo): no reports of inflammatory reactions | retinal tears or retinal detachments ([5]; in vivo): No retinal tears or retinal detachments | vascular occlusions ([5]; in vivo): no vascular occlusions
